Values joined by “and” are separate entries in the source; they are usually repeats but may differ in a detail not shown here. Equal entries are not always repeated.
Experiments:
[1] = system: dog right ventricular muscle preparations; assay: Conventional microelectrode action potential recording, dog ventricular muscle; details: for APA / APD50 / APD90 / RP / Vmax: ventricular muscle, CL = 1000 ms, n = 8
Method: The effects of SZV-2649 on action potentials were studied in dog ventricular, atrial and Purkinje fiber preparations.
The Class I antiarrhythmic property of SZV-2649 was further studied with different frequency-dependent protocols. […]. Action potentials were recorded in cardiac ventricular trabeculae and papillary muscle preparations obtained from the right ventricles of Beagle dogs (10–15 kg) of either sex using the conventional microelectrode technique. Dogs were sacrificed by iv. sedation with xylazine (1 mg/kg), followed by i.v. administration of 50 mg/kg pentobarbital. After the cornea reflex disapeared the chest was opened, and the heart was rapidly removed. The heart was immediately rinsed in oxygenated modified Locke’s solution containing (in mM): NaCl 128.3, KCl 4, CaCl2 1.8, MgCl2 0.42, NaHCO3 21.4, and glucose 10. The pH of this solution was set between 7.35 and 7.4 when gassed with the mixture of 95% O2 and 5% CO2 at 37 °C.
Isolated papillary muscle or atrial trabecula and Purkinje fiber preparations were obtained and prepared from the right ventricle and were individually mounted in a tissue chamber with the volume of 50 ml. Each preparation was initially stimulated through a pair of platinum electrodes in contact with the preparation using rectangular current pulses of 2 ms duration. These stimuli were delivered at a constant cycle length of 1000 ms for at least 60 min allowing the preparation to equilibrate before the measurements were initiated. Transmembrane potentials were recorded using conventional glass microelectrodes, filled with 3 M KCl and having tip resistances of 5–20 MΩ, connected to the input of a high impedance electrometer (Experimetria, type 309, Budapest, Hungary) which was coupled to a dual beam oscilloscope. […] Stimulation with a constant cycle length of 1000 ms was applied in the course of all experiments. Attempts were made to maintain the same impalement throughout each experiment. In case an impalement became dislodged, adjustment was attempted, and if the action potential characteristics of the re-established impalement deviated by less than 5% from the previous measurement, the experiment continued[64]–[67]. All measurements were carried out at 37 °C.

[2] = system: IKACh in dog atrial trabecular muscle preparations; assay: Action potential duration in carbachol-pretreated dog atrial trabecular muscle; details: 10 µM, after 1 µM carbachol for 10 min
Method: The possible effect of SZV-2649 on IKACh was investigated in dog atrial trabecular muscle preparations. Carbachol (1 µM) was added to the tissue bath for 10 min to activate IKACh. […] Application of 10 µM SZV-2649 prolonged APD substantially to a greater degree (100%) than could be expected by its effect on repolarization in the absence of carbachol (10%) as shown in Table 1; Fig. 5D.
Action potentials were recorded in cardiac ventricular trabeculae and papillary muscle preparations obtained from the right ventricles of Beagle dogs (10–15 kg) of either sex using the conventional microelectrode technique. Dogs were sacrificed by iv. sedation with xylazine (1 mg/kg), followed by i.v. administration of 50 mg/kg pentobarbital. After the cornea reflex disapeared the chest was opened, and the heart was rapidly removed. […]
Isolated papillary muscle or atrial trabecula and Purkinje fiber preparations were obtained and prepared from the right ventricle and were individually mounted in a tissue chamber with the volume of 50 ml. […] Transmembrane potentials were recorded using conventional glass microelectrodes, filled with 3 M KCl and having tip resistances of 5–20 MΩ, connected to the input of a high impedance electrometer (Experimetria, type 309, Budapest, Hungary) which was coupled to a dual beam oscilloscope. […]

anesthetized dogs = assay: Atrial fibrillation induced by carbachol infusion and burst stimulation in anesthetized dogs; format: in vivo, dog; set-up: key to AF converted to SR? / AF reinduced?: N, response not observed; Y, response observed
Method: The effect of SZV-2649 was further investigated in carbachol-infused and programmed electrical stimulation-induced (i.e. 800/min atrial burst stimulation) acute atrial fibillation model in anesthetized dogs.
In the atrial fibrillation experiments, at least 5–6 dogs for control and test groups, (respectively) were used. Following 0.5 µg/kg sufentanyl premedication and […] i.v. pentobarbital anaesthesia induction, left thoracotomy was performed on all animals. Dogs were endotracheally intubated and mechanically ventilated (UGO Basile respirator; Biological Research Apparatus, Italy) Physiological parameters (non-invasive blood pressure, SpO2, ECG) were continuously monitored during surgery and experiments (InnoCare-VET Patient Care Monitor; Budapest, Hungary). The ECGs were recorded using precordial leads and were digitized and stored on a computer for off-line analysis using National Instruments data acquisition hardware (National Instruments, Austin, Texas, USA) and SPEL Advanced Haemosys software (version 3.2, MDE Heidelberg GmbH, Germany). Under pentobarbital anaesthesia, two pacemaker electrodes (Biotronik Solia S 60; Biotronik Ltd., Hungary) were positioned epicardially into the left atrial appendage and apex of the left ventricle, respectively, and electrodes were connected to pacemakers (Effecta D; Biotronik Hungary Ltd., Hungary). Pacemakers were programmed in VVI mode using Biotronik IC: 4808 A-Renamic programmer to prevent the potentially bradycardic effect of carbachol leading to hemodynamic instability. Atrial and ventricular thresholds were measured before AF induction in all animals. Ventricular and atrial pacing were set to three times the measured threshold. AF inducibility were tested in both groups using a control set (25 times) of 10-second-long rapid atrial bursts (800 beats/min, at threefold threshold). Following 25 atrial burst stimuli, 2 × 2 µg/kg loading dose of intravenous carbachol was administered followed by an 8 µg/kg/h maintenance dose. Atrial fibrillation was induced using 10-second-long atrial burst stimuli in the presence of carbachol in both groups of dogs. […] In these experiments, we investigated whether AF was converted to SR by the test drug(s). All intravenous infusions were performed using a programmable infusion pump (Terufusion TE-3; Terumo Europe, Leuven, Belgium).

[3] = i.v. 10 mg/kg, individual dogs, carbachol + burst, 10 mg/kg

## CC(N)COc1c(I)cc(C#N)cc1I.Cl (centres unmarked) [SZV-2649, 4-(2-aminopropoxy)-3,5-diiodobenzonitrile hydrochloride]
[1]; 5 µM
  APA: 118.3 ± 1.9 mV
  APD50: 212.2 ± 5.7 ms
  APD90: 251.6 ± 4.0 ms
  RP: −84.5 ± 2.0 mV
  Vmax: 227.4 ± 24.2 V/s
[1]; 10 µM, dog ventricular muscle, premature stimulation from 1 Hz basic frequency
  Recovery time constant of Vmax (offset kinetics of Vmax block, τoffset): 590 ms
[1]; 10 µM
  APA: 117.1 ± 2.1 mV
  APD50: 213.4 ± 5.8 ms
  APD90: 252.8 ± 5.0 ms
  RP: −86.1 ± 2.0 mV
  Vmax: 203.2 ± 24.3 V/s
[1]; […]
  Vmax: 228.3 ± 23.5 V/s
[2]
  Prolongation of APD in the presence of carbachol: 100%
Anesthetized dogs; i.v. 10 mg/kg, individual dogs, carbachol + burst
  AF converted to SR?: Y
Anesthetized dogs; [3]
  AF converted to SR? (time printed in cell): 79 s and 175 s and 64 s and 286 s and 84 s and 194 s
  AF reinduced (number of the 25 burst stimuli): 0/25 and 1/25 and 2/25
  AF reinduced?: N and Y (2×)
Anesthetized dogs; i.v. 10 mg/kg, whole group
  Atrial fibrillation reinduced, share of burst stimuli: 2%
  Times atrial fibrillation was reinduced by the 25 burst stimuli delivered in each animal: 3 times
Anesthetized dogs; intravenous bolus 10 mg/kg
  Experimental animals in which atrial fibrillation was converted to sinus rhythm: 100%
